Data published in patent US6818235B2, “Beneficial control of energy balance in periparturient cattle” (Church & Dwight Co., Inc., priority 2001, dated 2004).

Legend:
Assay type in all cases: in vivo
Holstein cows [1] = test: Milk production and composition of postpartum cows fed CLA amide supplements
From the text: (§1) One hundred and twenty Holstein cows who were to begin their second or greater lactation are randomly selected to receive one of four Conjugated Linoleic Acid (CLA) supplementation regimens. Control cows receive no supplemental CLA (0 CLA), cows offered Treatment 1 receive the cis-9, trans-11 CLA isomer (9, 11 CLA), cows offered Treatment 2 receive the trans-10, cis-12 CLA isomer (10, 12 CLA) and cows offered Treatment 3 receive both isomers in a 50:50 mix (mixed CLA).
(§2) Isomers of CLA are obtained at 85% purity and are converted to their amide form (unsubstituted) for a rumen bypass rate of 65%. The remaining 15% of the 85% pure CLA isomers are the other isomers of CLA. Treatments 1 and 2 are formulated to deliver 7 grams of each CLA isomer per cow/day at the intestinal level. Therefore, 13 g/cow/day of the respective CLA amides are included in the daily rations offered as Total Mixed Rations (TMR) (i.e., 13 g CLA amide×85% purity×65% rumen bypass=7.18 g intestinal CLA isomer). Treatment 3 is formulated to deliver 7 grams of both isomers per cow per day in the intestine resulting in a 26 g supplement.
Cows are fed their CLA treatments beginning 7 days prepartum and remain on the supplement until 35 days postpartum. To maintain the diets isoenergetic with equal amounts of added fat to the diets, the CLA amides are substituted for Megalac (calcium salts of palm fatty acids). Postpartum diets are offered immediately postpartum.
Prepartum diets are formulated to meet or exceed NRC (2000) requirements at a daily intake of 10.6 kg of DM. This is done to assure that all feed is consumed in a 24-hour period. Postpartum diets are also formulated to meet or exceed requirements for a cow producing (ca.) 45 kg of milk daily at ad libitum consumption of DM.
Cows are milked four times per day to assure maximum expression of production potential and are housed and fed in individual tie-stalls to obtain individual estimates of DMI.
(§3) Other measurements include: Start-up milk production (defined as colostrum milk secreted in the first 24 hours postpartum) analyzed for milk fat and fatty acid composition; Daily milk production and composition (total fat and protein); Daily dry matter intake (DMI); Calculated net energy balance defined as net energy intake minus net energy secreted in milk expressed in megacalories (Mcal) per day.

Holstein cows [2] = test: Calculated net energy balance (net energy intake minus net energy secreted in milk)
From the text: as §1
Isomers of CLA are obtained at 85% purity and are converted to their amide form (unsubstituted) for a rumen bypass rate of 65%. The remaining 15% of the 85% pure CLA isomers are the other isomers of CLA. Treatments 1 and 2 are formulated to deliver 7 grams of each CLA isomer per cow/day at the intestinal level. […]
as §3
Calculated average energy balance postpartum is actual daily […] minus actual daily milk energy outputs.

[3] = tested on: mammary glands of Holstein cows; test: Mammary gland total parenchymal DNA and RNA-to-DNA ratio at day 15 postpartum; details: excised mammary glands, five cows per treatment
From the text: as §1, §2
Cows are fed their CLA treatments beginning 7 days prepartum and remain on the supplement until 35 days postpartum. To maintain the diets isoenergetic with equal amounts of added fat to the diets, the CLA amides are substituted for Megalac (calcium salts of palm fatty acids). […]

[4] = average for the next 34 days postpartum
[5] = colostrum, first 24 hours postpartum

CCCCCC/C=C/C=C\CCCCCCCC(=O)O [9, 11 CLA, cis-9, trans-11 conjugated linoleic acid]
FCM (fat corrected milk, 4% fat) (Holstein cows [1]; [4]): 36.88a kg/d | Milk (Holstein cows [1]; [4]): 40.2a kg/d | Milk fat (Holstein cows [1]; [4]): 1.04a kg/d | Milk fat % (Holstein cows [1]; [4]): 3.45a % | SCFA + MCFA:LCFA (ratio of short plus medium chain to long chain fatty acids in milk fat) (Holstein cows [1]; [4]): 58.42b | Startup milk fat % (Holstein cows [1]; [5]): 8.9c % | Startup milk fat kg (Holstein cows [1]; [5]): 1.44b kg | Startup milk (Holstein cows [1]; colostrum, first 24 hours postpartum, 7 g of each CLA isomer/cow/day at intestinal level): 20.2a kg | Startup FCM (fat corrected milk, 4% fat) (Holstein cows [1]; first 24 hours postpartum): 35.05c kg | Calculated average energy blance postpartum (Holstein cows [2]; [4]): −1.1c Mcal/d | Calculated energy balance at the end of day-1 postpartum (Holstein cows [2]; end of day-1 postpartum): −3.6b Mcal | Total parenchymal DNA, lower compared to 0 CLA group [3]: 18%
